Patent publication US20060079453A1, “Hla binding peptides and their uses” (priority 2002, published 2006)
Like-named read-outs stand apart in the source and are kept apart here. No end group written: not given here.

What was measured:
Assay in all cases: biochemical
Assay type in all cases: binding
HLA-DR DRB1*0701 (DR7) = HLA-DR DRB1*0701 (DR7) (Homo sapiens, UniProt P01903+P01911, A100R/A102G/A103Q/D57E/D86V/E43K/F76Y/K127E/L162R/M171V/P40G/Q125H/Q99D/R33Q/R42Y/R54Q/S133A/S66F/T210M/V115G/Y107V/Y59L/Y89S)
HLA-DR DRB1*0101 (DR1) = HLA-DR DRB1*0101 (DR1) (Homo sapiens, UniProt P01903+P01911, A100R/D57E/F55L/F60I/F76Y/I96L/L162R/M171V/P40L/Q125E/R42F/V115G/Y59C)
HLA-DR DRB5*0101 (DR51) = HLA-DR DRB5*0101 (DR51) (Homo sapiens, UniProt P01903+Q30154); conditions: DRB5 *0101
HLA-DR DRB1*1501 (DR15) = HLA-DR DRB1*1501 (DR15) (Homo sapiens, UniProt P01903+P01911); conditions: DRBI *1501
HLA-DR DRB4*0101 (DR53) = HLA-DR DRB4*0101 (DR53) (Homo sapiens, UniProt P01903+P13762, G164S); conditions: DRB4 *0101
HLA-DR DRB1*0802 (DR8) = HLA-DR DRB1*0802 (DR8) (Homo sapiens, UniProt P01903+P01911, A100R/A103L/A169T/F76Y/H45Y/I96F/K41T/L162R/M171V/P40S/Q125H/Q178H/Q39Y/Q99D/R218S/R42G/S66Y/V115G/W38E)
HLA-DR DRB1*1302 (DR13) = HLA-DR DRB1*1302 (DR13) (Homo sapiens, UniProt P01903+P01911, A100E/A169T/K41T/L162R/M171V/P40S/Q125H/Q178H/Q39Y/Q99D/R42S/S66N/T262R/V115G/W38E/Y61H); conditions: DRBI *1302
HLA-DR DRB1*1302 (DR13), sequence (P01903 26-254 limits assumed, other chains not shown): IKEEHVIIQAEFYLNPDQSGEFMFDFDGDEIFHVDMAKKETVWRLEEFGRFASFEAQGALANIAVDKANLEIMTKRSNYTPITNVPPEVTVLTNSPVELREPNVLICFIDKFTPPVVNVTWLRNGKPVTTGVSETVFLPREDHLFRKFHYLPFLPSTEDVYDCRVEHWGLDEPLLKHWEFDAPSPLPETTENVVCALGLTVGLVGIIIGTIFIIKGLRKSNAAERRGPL

HLA-DR DRB1*0401 (DR4) = HLA-DR DRB1*0401 (DR4) (Homo sapiens, UniProt P01903+P01911, A100K/A169T/F76Y/I96L/K127E/L162R/M171V/N62H/P40V/Q125Y/R42H/S133A/S149N/S66Y/V115G/V209L/W38E)
HLA-DR DRB1*0901 (DR9) = HLA-DR DRB1*0901 (DR9) (Homo sapiens, UniProt P01903+P01911, A100R/A103E/D57H/D86V/F55Y/F60I/F76Y/I96F/K127E/L162R/M171V/P40D/Q125H/Q99R/R33Q/R42F/S133A/S66N/T210M/V115G/W38K/Y107V/Y59G/Y89S)
HLA-DR DRB1*1101 (DR11) = HLA-DR DRB1*1101 (DR11) (Homo sapiens, UniProt P01903+P01911, A100R/A169T/A87E/I96F/K41T/L162R/M171V/P40S/Q125H/Q178H/Q39Y/Q99D/R42S/S66Y/T262R/V115G/W38E); conditions: DRB1 *1101
HLA-DR DRB1*1101 (DR11), sequence (P01903 26-254 limits assumed, other chains not shown): as above

HLA-DR DRB1*0301 (DR3) = HLA-DR DRB1*0301 (DR3) (Homo sapiens, UniProt P01903+P01911, A100K/A102G/A103R/A169T/F55Y/I96L/K41T/L162R/M171V/P40S/Q125H/Q178H/Q39Y/R42S/S66N/T106N/T262R/W38E/Y61H); conditions: read-out: DRB1 *0301
HLA-DR DRB1*0301 (DR3), sequence (P01903 26-254 limits assumed, other chains not shown): as above

Question: How did the IC50 (HLA-DR DRB1*0701 (DR7); DRB1 *0701) turn out when LDIYQKLYIKQEEQK was run?
Answer: > 88.3 µM

Question: What about the IC50 (HLA-DR DRB1*0101 (DR1); DRB1 *0101) of the same sequence?
Answer: 2.83 µM

Question: And the IC50 (HLA-DR DRB5*0101 (DR51))?
Answer: 6.96 µM

Question: And the IC50 (HLA-DR DRB1*1501 (DR15))?
Answer: 0.047 µM

Question: And the IC50 (HLA-DR DRB4*0101 (DR53))?
Answer: 0.07 µM

Question: What about the IC50 (HLA-DR DRB1*0802 (DR8)) of the same sequence?
Answer: 1.2 µM

Question: What about the IC50 (HLA-DR DRB1*1302 (DR13)) of the same sequence?
Answer: 4.35 µM

Question: What about the IC50 (HLA-DR DRB1*0401 (DR4); DRB1 *0401) of the same sequence?
Answer: 1.49 µM

Question: MSAMTNLAALFPPEG was tested. Which IC50 (HLA-DR DRB1*0701 (DR7); read-out: DRB1 *0701) did it give?
Answer: 36.1 µM

Question: What about the IC50 (HLA-DR DRB1*0901 (DR9); read-out: DRB1 *0901) of the same sequence?
Answer: > 187 µM

Question: And the IC50 (HLA-DR DRB1*0802 (DR8); read-out: DRB1 *0802)?
Answer: 73.9 µM

Question: And the IC50 (HLA-DR DRB1*0401 (DR4); read-out: DRB1 *0401)?
Answer: 0.7 µM

Question: For MTNLAALFPPEGVS, which IC50 (HLA-DR DRB1*0701 (DR7); read-out: DRB1 *0701) is on record?
Answer: > 125 µM

Question: What about the IC50 (HLA-DR DRB1*0101 (DR1); read-out: DRB1 *0101) of the same sequence?
Answer: 0.024 µM

Question: What about the IC50 (HLA-DR DRB1*0901 (DR9); read-out: DRB1 *0901) of the same sequence?
Answer: 22.8 µM

Question: And the IC50 (HLA-DR DRB1*0802 (DR8); read-out: DRB1 *0802)?
Answer: 39.2 µM

Question: What about the IC50 (HLA-DR DRB1*0401 (DR4); read-out: DRB1 *0401) of the same sequence?
Answer: > 40 µM

Question: What does the source list for PRSLQCVSLHLLSND?
Answer: IC50 (HLA-DR DRB1*0701 (DR7); DRB1 *0701): 2.22 µM; IC50 (HLA-DR DRB1*0101 (DR1); DRB1 *0101): 1.11 µM; IC50 (HLA-DR DRB5*0101 (DR51)): 46.4 µM; IC50 (HLA-DR DRB1*0901 (DR9); DRB1 *0901): 28.3 µM; IC50 (HLA-DR DRB1*1501 (DR15)): 1.6 µM; IC50 (HLA-DR DRB4*0101 (DR53)): 0.544 µM; IC50 (HLA-DR DRB1*0802 (DR8)): 6.11 µM; IC50 (HLA-DR DRB1*1101 (DR11)): 11.1 µM; IC50 (HLA-DR DRB1*1302 (DR13)): 3.73 µM; IC50 (HLA-DR DRB1*0401 (DR4); DRB1 *0401): 16 µM

Question: How did the IC50 (HLA-DR DRB1*0701 (DR7); DRB1 *0701) turn out when PRWLCAGALVLAGGF was run?
Answer: 0.766 µM

Question: And the IC50 (HLA-DR DRB1*0101 (DR1); DRB1 *0101)?
Answer: 0.046 µM

Question: What about the IC50 (HLA-DR DRB5*0101 (DR51)) of the same sequence?
Answer: 40.8 µM

Question: And the IC50 (HLA-DR DRB1*0901 (DR9); DRB1 *0901)?
Answer: 1.44 µM

Question: And the IC50 (HLA-DR DRB4*0101 (DR53))?
Answer: 0.883 µM

Question: And the IC50 (HLA-DR DRB1*0802 (DR8))?
Answer: 26.5 µM

Question: What about the IC50 (HLA-DR DRB1*1101 (DR11)) of the same sequence?
Answer: > 40 µM

Question: What about the IC50 (HLA-DR DRB1*1302 (DR13)) of the same sequence?
Answer: 20.2 µM

Question: What about the IC50 (HLA-DR DRB1*0401 (DR4); DRB1 *0401) of the same sequence?
Answer: > 20 µM

Question: With QKILIKIPVTKNIIT as the sequence, how does the IC50 (HLA-DR DRB1*0701 (DR7); DRB1 *0701) read?
Answer: 0.534 µM

Question: And the IC50 (HLA-DR DRB1*0101 (DR1); DRB1 *0101)?
Answer: 0.993 µM

Question: What about the IC50 (HLA-DR DRB5*0101 (DR51)) of the same sequence?
Answer: 0.297 µM

Question: What about the IC50 (HLA-DR DRB1*1501 (DR15)) of the same sequence?
Answer: 3.61 µM

Question: And the IC50 (HLA-DR DRB4*0101 (DR53))?
Answer: 0.953 µM

Question: What about the IC50 (HLA-DR DRB1*0802 (DR8)) of the same sequence?
Answer: 2.24 µM

Question: What about the IC50 (HLA-DR DRB1*1302 (DR13)) of the same sequence?
Answer: 0.332 µM

Question: What about the IC50 (HLA-DR DRB1*0401 (DR4); DRB1 *0401) of the same sequence?
Answer: 0.303 µM

Question: With SFLQNPQTSLCCFRK as the sequence, how does the IC50 (HLA-DR DRB1*0701 (DR7); read-out: DRB1 *0701) read?
Answer: 7.03 µM

Question: And the IC50 (HLA-DR DRB1*0802 (DR8); read-out: DRB1 *0802)?
Answer: 7.07 µM

Question: And the IC50 (HLA-DR DRB1*0401 (DR4); read-out: DRB1 *0401)?
Answer: 0.671 µM

Question: And the IC50 (HLA-DR DRB1*0301 (DR3))?
Answer: 1.83 µM

Question: What does the source list for TAWTIVRVEILRYFY?
Answer: IC50 (HLA-DR DRB1*0701 (DR7); read-out: DRB1 *0701): 0.029 µM; IC50 (HLA-DR DRB1*0101 (DR1); read-out: DRB1 *0101): 0.0078 µM; IC50 (HLA-DR DRB1*0802 (DR8); read-out: DRB1 *0802): 57.2 µM; IC50 (HLA-DR DRB1*0401 (DR4); read-out: DRB1 *0401): 0.044 µM; IC50 (HLA-DR DRB1*0301 (DR3)): 3 µM

Question: VAQVRGGMVFELANS was tested. Which IC50 (HLA-DR DRB1*0701 (DR7); read-out: DRB1 *0701) did it give?
Answer: 4.45 µM

Question: And the IC50 (HLA-DR DRB1*0901 (DR9); read-out: DRB1 *0901)?
Answer: 0.499 µM

Question: What about the IC50 (HLA-DR DRB1*0802 (DR8); read-out: DRB1 *0802) of the same sequence?
Answer: > 98 µM

Question: What about the IC50 (HLA-DR DRB1*0401 (DR4); read-out: DRB1 *0401) of the same sequence?
Answer: 0.662 µM

Question: VEALYLVCGERGFLY was tested. Which IC50 (HLA-DR DRB1*0701 (DR7); DRB1 *0701) did it give?
Answer: 5.35 µM

Question: And the IC50 (HLA-DR DRB1*0101 (DR1); DRB1 *0101)?
Answer: 0.014 µM

Question: And the IC50 (HLA-DR DRB5*0101 (DR51))?
Answer: 5.15 µM

Question: What about the IC50 (HLA-DR DRB1*0901 (DR9); DRB1 *0901) of the same sequence?
Answer: 3.06 µM

Question: What about the IC50 (HLA-DR DRB4*0101 (DR53)) of the same sequence?
Answer: 0.019 µM

Question: What about the IC50 (HLA-DR DRB1*0802 (DR8)) of the same sequence?
Answer: 10.6 µM

Question: And the IC50 (HLA-DR DRB1*1101 (DR11))?
Answer: 55.4 µM

Question: What about the IC50 (HLA-DR DRB1*1302 (DR13)) of the same sequence?
Answer: 1.87 µM

Question: VLFLQMMNVNLQKQL was tested. Which IC50 (HLA-DR DRB1*0701 (DR7); DRB1 *0701) did it give?
Answer: 8.44 µM

Question: What about the IC50 (HLA-DR DRB1*0101 (DR1); DRB1 *0101) of the same sequence?
Answer: 0.0063 µM

Question: And the IC50 (HLA-DR DRB5*0101 (DR51))?
Answer: > 7.21 µM

Question: And the IC50 (HLA-DR DRB1*1501 (DR15))?
Answer: 8.2 µM

Question: What about the IC50 (HLA-DR DRB4*0101 (DR53)) of the same sequence?
Answer: 0.012 µM

Question: And the IC50 (HLA-DR DRB1*0802 (DR8))?
Answer: 56.8 µM

Question: What about the IC50 (HLA-DR DRB1*1302 (DR13)) of the same sequence?
Answer: 0.0086 µM

Question: What about the IC50 (HLA-DR DRB1*0401 (DR4); DRB1 *0401) of the same sequence?
Answer: 0.03 µM

Question: What does the source list for YEALIKLLPFSKRIR?
Answer: IC50 (HLA-DR DRB1*0701 (DR7); DRB1 *0701): 3.58 µM; IC50 (HLA-DR DRB1*0101 (DR1); DRB1 *0101): 0.055 µM; IC50 (HLA-DR DRB5*0101 (DR51)): 0.011 µM; IC50 (HLA-DR DRB1*1501 (DR15)): 0.036 µM; IC50 (HLA-DR DRB4*0101 (DR53)): 0.015 µM; IC50 (HLA-DR DRB1*0802 (DR8)): 0.18 µM; IC50 (HLA-DR DRB1*1302 (DR13)): 0.23 µM; IC50 (HLA-DR DRB1*0401 (DR4); DRB1 *0401): 1.84 µM

Question: Which results are given for YILLKKILSSRFNQM?
Answer: IC50 (HLA-DR DRB1*0701 (DR7); DRB1 *0701): 0.0083 µM; IC50 (HLA-DR DRB1*0101 (DR1); DRB1 *0101): 0.22 µM; IC50 (HLA-DR DRB5*0101 (DR51)): 0.083 µM; IC50 (HLA-DR DRB1*1501 (DR15)): 0.026 µM; IC50 (HLA-DR DRB4*0101 (DR53)): 0.34 µM; IC50 (HLA-DR DRB1*0802 (DR8)): 0.018 µM; IC50 (HLA-DR DRB1*0401 (DR4); DRB1 *0401): 0.183 µM
